The term IC50 denotes the concentration needed to halve the response being measured. Usually half-life stands for how long it takes for the measured level to halve.

We go through three compounds from patent publication US9969753B2, “BCR-ABL diploid inhibitor, synthesizing method therefor, and uses thereof” (CHENGDU UNIVERSITY, priority 2014, dated 2018).

Data set [1] has as its system KBM5 (Bcr-Abl positive) cell subcutaneous implanted tumor. The experiment in a line: Leukemia subcutaneous xenograft growth inhibition test, KBM5. In kind it is in vivo, C57BL/6(Es-1^c) nude mice. To be noted: dosed once a day for two weeks, tumor volume; for inhibitory effect compared with Imatinib in KBM5 subcutaneous tumor model: positive control 160 mg/Kg Imatinib. The source says:
According to the test results of the growth inhibition in vitro, assess inhibitory effect of the BGC to transplant subcutaneously in C57BL/6(Es-1^c) nude mice with human leukemia KBM5 cells growth.
Study tumor growth if it can be inhibited, slowed or cured. Twice a week or every other day, use a vernier caliper to measure the tumor size. The calculation formula of tumor volume: V=0.5a×b^2, a, b respectively represent the long and short radius of the tumor.
(§1) Data analysis: T test is used for the comparison between the two groups; one-way ANOVA is used between three or more groups. If there is a significant difference of f value, multiple comparisons should be used additional to ANOVA analysis. Two-way ANOVA is used to analyze potential synergies of combined drug group. All data analysis use SPSS 17.0; p<0.05 is considered with a significant difference.
According to the test results of the growth inhibition in vitro, select the minimum IC50 of the compound BP of the present invention, assess inhibitory effect of the BP to transplant subcutaneously in C57BL/6(Es-1^c) nude mice with human leukemia KBM5 and KBM5R cells growth.
According to the test results of the growth inhibition in vitro, select the minimum IC50 of the compound BDB of the present invention, assess inhibitory effect of the BDB to transplant subcutaneously in C57BL/6(Es-1^c) nude mice with human leukemia KBM5 and KBM5R cells growth.

The subject of data set [2] is KBM5R (Bcr-Abl T315I mutation) cell subcutaneous implanted tumor. The experiment in a line: Leukemia subcutaneous xenograft growth inhibition test, KBM5R. Particulars: dosed once a day for two weeks, tumor volume; Imatinib 160 mg/Kg. In kind it is in vivo, C57BL/6(Es-1^c) nude mice.
Source text: Twice a week or every other day, use a vernier caliper to measure the tumor size. The calculation formula of tumor volume: V=0.5a×b^2, a, b respectively represent the long and short radius of the tumor.
as §1

In a further data set the target is c-Abl tyrosine kinase (Homo sapiens, UniProt P00519). The experiment in a line: Mobility Shift Assay, inhibition of kinase Abl in vitro. The class given is biochemical. Particulars: 10 concentrations 100 μM to 0.005 μM. On the procedure:
Using the method of mobility Shift Assay, detect activity of the compound BGC with kinase Abl in vitro. The concentration of BGC was diluted from 100 μM with 100% DMSO to 0.005 μM using 3 times dilution method, 10 concentrations in total for detection (2 duplicate) with staurosporine as standard control, set solvent control (10% DMSO) and negative control (EDTA).
Detect activity of different concentrations of the compound BGC on 384 holes reaction plate by enzyme-linked immune response on the inhibition of the kinase Abl, read the conversion rate data on Caliper, and convert the conversion rate to inhibition rate. Percent inhibition=(max−conversion)/(max−min)*100
Wherein, max is the conversion rate of DMSO control; min refers to the conversion rate of enzyme-free control.
According to inhibition rate of the concentrations, calculate the half inhibitory concentration IC50 of the compound BGC to tyrosine kinase Abl.
Using the method of Mobility Shift Assay, detect activity of the compound BP with kinase Abl in vitro. The concentration of BP was diluted from 100 μM with 100% DMSO to 0.005 μM using 3 times dilution method, 10 concentrations in total for detection (2 duplicate) with staurosporine as standard control, set solvent control (10% DMSO) and negative control (EDTA).
Detect activity of different concentrations of the compound BP on 384 holes reaction plate by enzyme-linked immune response on the inhibition of the kinase Abl, read the conversion rate data on Caliper, and convert the conversion rate to inhibition rate. Percent inhibition=(max−conversion)/(max−min)*100
Wherein, max is the conversion rate of DMSO control, min refers to the conversion rate of enzyme-free control.
According to inhibition rate of the concentrations, calculate the half inhibitory concentration IC50 of the compound BP to tyrosine kinase c-Abl. […]
Detect activity of different concentrations of the compound BDB on 384 holes reaction plate by enzyme-linked immune response on the inhibition of the kinase Abl, read the conversion rate data on Caliper, and convert the conversion rate to inhibition rate. […]

A short description of data set [3]: Preliminary pharmacokinetic study, single intravenous dosage. The class given is in vivo, female C57BL/6(Es-1^c) nude mice. Particulars: female, C57BL/6(Es-1^c) nude, mouse, whole blood; intravenous 1 mg/kg, mice, non-compartmental model.
Method: Experiment methods and procedures are as follows: female C57BL/6(Es-1^c) nude mice, weight 18-25 g, age 6-8 weeks, other, 3 female C57BL/6(Es-1^c) nude mice for blank samples, prepare for the standard curve for analysis. Intravenous dosage 1 mg/kg, delivery volume 5 mL/kg. Intravenous injection drug solution: DMSO:Solutol HS15:Saline=5:5:90, v/v/v. […] Female C57BL/6(Es-1^c) nude mice after intravenous injection dosage collect about 20 μL bloods from the mouse tail vein at 0.25 h, 2 h, 8 h and 24 h, use K2EDTA anticoagulant. Use steamed water to dilute the blood sample in accordance with volume in 3 times and store the diluted blood sample at −70° C. for analysis.
Data analysis: use WinNonlin (version 6.2) software, based on non-compartmental model to calculate the pharmacokinetic parameters.
Experiment methods and procedures are as follows: female C57BL/6(Es-1^c) nude mice, weight 18-25 g, age 6-8 weeks, other, 3 female C57BL/6(Es-1^c) nude mice for blank samples, prepare for the standard curve for analysis. Intravenous dosage 1 mg/kg, delivery volume 5 mL/kg. Intravenous injection drug solution: DMSO:Solutol HS15:Saline=5:5:90, v/v/v. […] Female C57BL/6(Es-1^c) nude mice after intravenous injection dosage collect about 20 μL blood from the mouse tail vein at 0.25h, 2h, 8h and 24 h, use K2EDTA anticoagulant. Use steamed water to dilute the blood sample in accordance with volume in 3 times and store the diluted blood sample at −70° C. for analysis.
Experiment methods and procedures are as follows: female C57BL/6(Es-1^c) nude mice, weight 18-25 g, age 6-8 weeks, other, 3 female C57BL/6(Es-1^c) nude mice for blank samples, prepare for the standard curve for analysis. Intravenous dosage 1 mg/kg, delivery volume 5 mL/kg.
Data set [4] concerns KBM5 (human wild type Bcr-Abl) cells. The experiment in a line: KBM5 tumor growth inhibition test in vitro (ATP method). Particulars: 72 hours incubation, read-out: IC50, cytotoxicity to KBM5 cells. In kind it is cell-based. On the procedure: (§2) Using ATP method to determine the cell toxicity of compound BGC of the present invention. Adjust the KBM5 cells to a suitable cell density. 140 ul cell suspensions inoculated each hole on 96-well plate. The vaccination density of each species cell is: 2000-6000; then the cell culture plate is placed in the incubator for 24 hours so that it is attached on the wall holes. Using 3 times dilution method to prepare the solution of BGC compound with different concentrations, and add them into the correspond holes on 96-well plate with vaccination in advance, 10 μL of each hole, and its final concentrations are as follows: 100 μM, 33.3 μM, 11.1 μM, 3.70 μM, 1.23 μM, 0.41 μM, 0.14 μM, 0.046 μM, 0.015 μM. Duplicate 3 times of each concentration. After 72 hours incubation in 37° C. incubator, detect the cell proliferation of each hole with ATP method, and calculate the drug concentration to median lethal concentration IC50 of KBM5 cells.
as §2, with “BP” for “BGC”, “KBM5 and KBM5R” for “KBM5”, “method” for “method,”
Using ATP method to determine the cell toxicity of compound BDB of the present invention. Adjust the KBM5 and KBM5R cells to a suitable cell density. 140 ul cell suspensions inoculated each hole on 96-well plate. […]

In data set [5] the test system is KBM5R (Bcr-Abl T315I mutation) cells. Nature of the data set: KBM5R tumor growth inhibition test in vitro (ATP method). The class given is cell-based. Particulars: Homo sapiens, 72 hours incubation, read-out: IC50, cytotoxicity to KBM5R cells. The protocol:
as §2, with “BP” for “BGC”, “KBM5 and KBM5R” for “KBM5”, “method” for “method,”
Using ATP method to determine the cell toxicity of compound BDB of the present invention. Adjust the KBM5 and KBM5R cells to a suitable cell density. 140 ul cell suspensions inoculated each hole on 96-well plate. The vaccination density of each species cell is: 2000-6000; then the cell culture plate is placed in the incubator for 24 hours so that it is attached on the wall holes. […]

Chain of c-Abl tyrosine kinase (P00519 whole entry): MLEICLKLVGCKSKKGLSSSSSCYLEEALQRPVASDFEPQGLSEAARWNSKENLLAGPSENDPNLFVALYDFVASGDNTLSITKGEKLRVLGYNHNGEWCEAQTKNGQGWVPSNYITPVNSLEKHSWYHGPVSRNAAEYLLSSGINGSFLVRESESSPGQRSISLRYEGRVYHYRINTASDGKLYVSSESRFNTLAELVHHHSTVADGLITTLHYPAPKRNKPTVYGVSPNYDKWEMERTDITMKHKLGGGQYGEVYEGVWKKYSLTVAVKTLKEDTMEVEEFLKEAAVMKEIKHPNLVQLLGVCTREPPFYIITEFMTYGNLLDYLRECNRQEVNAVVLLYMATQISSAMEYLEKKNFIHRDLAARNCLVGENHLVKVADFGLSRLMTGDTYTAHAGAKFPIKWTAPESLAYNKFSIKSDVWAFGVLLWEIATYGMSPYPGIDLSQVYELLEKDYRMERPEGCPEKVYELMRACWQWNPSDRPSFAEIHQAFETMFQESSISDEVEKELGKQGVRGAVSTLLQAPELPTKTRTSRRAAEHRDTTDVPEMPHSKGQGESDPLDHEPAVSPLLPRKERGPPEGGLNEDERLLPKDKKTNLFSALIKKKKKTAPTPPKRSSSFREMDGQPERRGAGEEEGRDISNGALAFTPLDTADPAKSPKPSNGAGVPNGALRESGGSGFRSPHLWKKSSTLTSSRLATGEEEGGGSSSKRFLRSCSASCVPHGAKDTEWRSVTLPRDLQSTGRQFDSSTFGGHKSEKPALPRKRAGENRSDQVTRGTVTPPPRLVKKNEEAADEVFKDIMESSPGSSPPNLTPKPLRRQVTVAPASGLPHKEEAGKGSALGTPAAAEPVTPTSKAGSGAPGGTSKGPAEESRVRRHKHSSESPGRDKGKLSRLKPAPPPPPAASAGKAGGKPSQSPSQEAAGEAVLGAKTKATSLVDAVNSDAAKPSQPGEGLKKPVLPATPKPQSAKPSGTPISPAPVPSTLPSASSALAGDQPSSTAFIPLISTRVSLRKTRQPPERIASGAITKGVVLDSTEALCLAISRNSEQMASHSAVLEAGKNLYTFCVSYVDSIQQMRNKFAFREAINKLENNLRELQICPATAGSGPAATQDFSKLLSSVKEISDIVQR

Consider `CO[C@H](C(=O)N1Cc2[nH]nc(NC(=O)c3ccc(CN4CCN(CCC(=O)NCCCOCCOCCOCCCNC(=O)CCCC(=O)NCCCOCCOCCOCCCNC(=O)CCN5CCN(Cc6ccc(C(=O)Nc7n[nH]c8c7CN(C(=O)[C@H](OC)c7ccccc7)C8)cc6)CC5)CC4)cc3)c2C1)c1ccccc1` [compound BDB], for which the “anti-tumor efficacy in KBM5 subcutaneous tumor model” value in data set [1] was “has anti-tumor efficacy”. The “inhibitory effect compared with Imatinib in KBM5 subcutaneous tumor model” value (from here on “inhibitory effect compared with Imatinib”) in data set [1] is recorded as “same inhibitory effect with a dosage of 80 mg/kg as Imatinib of 160 mg/kg”. Further, in data set [2], the “anti-tumor efficacy in KBM5R subcutaneous tumor model” value is on record as “has anti-tumor efficacy”. The values for the IC50 (at c-Abl tyrosine kinase; in data set [4]; in data set [5]) were 0.05 µM, 7 µM and 8.9 µM, respectively. Besides, the half-life in data set [3] is 3.8 h.

For the compound `Cc1ccc(C(=O)Nc2ccc(CN3CCN(CCC(=O)NCCCOCCOCCOCCCNC(=O)CCCC(=O)NCCCOCCOCCOCCCNC(=O)CCN4CCN(Cc5ccc(NC(=O)c6ccc(C)c(C#Cc7cnc8cccnn78)c6)cc5C(F)(F)F)CC4)CC3)c(C(F)(F)F)c2)cc1C#Cc1cnc2cccnn12` [compound BP], the “anti-tumor efficacy in KBM5 subcutaneous tumor model” value in data set [1] was “has anti-tumor efficacy”. In addition, the “inhibitory effect compared with Imatinib” value in data set [1] was “same inhibitory effect with a dosage of 80 mg/kg as Imatinib of 160 mg/kg”. Further, the “anti-tumor efficacy in KBM5R subcutaneous tumor model” value in data set [2] is given as “has anti-tumor efficacy”. Further, the results for the IC50 (on c-Abl tyrosine kinase; in data set [4]; in data set [5]) were 0.01 µM, 2 µM and 5 µM, respectively. The compound further had a half-life in data set [3] of 3.5 h.

Turning to `Cc1ccc(NC(=O)c2ccc(CN3CCN(CCC(=O)NCCCOCCOCCOCCCNC(=O)CCCC(=O)NCCCOCCOCCOCCCNC(=O)CCN4CCN(Cc5ccc(C(=O)Nc6ccc(C)c(Nc7nccc(-c8cccnc8)n7)c6)cc5)CC4)CC3)cc2)cc1Nc1nccc(-c2cccnc2)n1` [compound BGC], in data set [1], the “anti-tumor efficacy in KBM5 subcutaneous tumor model” value is “has anti-tumor efficacy” and the “inhibitory effect compared with Imatinib” value is recorded as “same inhibitory effect with a dosage of 350 mg/kg as Imatinib of 160 mg/kg”. Besides, the half-inhibitory concentration (IC50) on c-Abl tyrosine kinase came out at 0.02 µM. The compound also gave a half-life in data set [3] of 3.5 h. The IC50 in data set [4] came to 9 µM.
